# Experimental data reported in US20100130482A1, “DIA[…] DERIVATIVES AS NICOTINIC ACETYLCHOLINE RECEPTOR LIGANDS” (priority 2004, published 2010).
# Structures can show the parent of a compound that is named as a salt.
# Biological target: T1, α7-subtype of nicotinic receptors (Rattus norvegicus, UniProt Q05941)
# T1 construct: Cerebral cortices from male Wistar rats (150-250 g) are homogenised; from tissue; host or cells: rat cerebral cortex membrane homogenate
# Experiment: In vitro inhibition of 3H-α-bungarotoxine binding in rat brain
# Conditions: rat cerebral cortex homogenate; 3H-α-bungarotoxine 2 nM; 2 hours at 37° C.
# T1 sequence (Q05941 23-502): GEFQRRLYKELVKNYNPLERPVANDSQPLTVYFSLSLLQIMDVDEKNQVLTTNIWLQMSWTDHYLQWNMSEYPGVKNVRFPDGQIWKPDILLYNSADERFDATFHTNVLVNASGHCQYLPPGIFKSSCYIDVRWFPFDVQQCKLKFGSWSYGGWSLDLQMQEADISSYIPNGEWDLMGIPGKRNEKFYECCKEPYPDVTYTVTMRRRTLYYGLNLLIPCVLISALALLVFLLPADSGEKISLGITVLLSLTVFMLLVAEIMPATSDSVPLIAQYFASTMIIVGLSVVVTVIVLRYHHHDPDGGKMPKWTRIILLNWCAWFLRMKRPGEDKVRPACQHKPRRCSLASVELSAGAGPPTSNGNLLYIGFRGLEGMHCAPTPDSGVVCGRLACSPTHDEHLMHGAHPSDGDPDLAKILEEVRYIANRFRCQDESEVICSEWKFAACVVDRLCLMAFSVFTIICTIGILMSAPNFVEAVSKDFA
row,Compound,IC50
1,"Nc1ccccc1NC(=O)Nc1ccc(-c2ccc(C(=O)N3CCN4CCC3CC4)o2)cc1 [Compound A1, 1-{4-[5-(1,4-Diaza-bicyclo[3.2.2]nonane-4-carbonyl)-furan-2-yl]-phenyl}-3-(2-aminophenyl)-urea]",1.2 nM
2,"CC(=O)Nc1ccccc1NC(=O)Nc1ccc(-c2ccc(C(=O)N3CCN4CCC3CC4)o2)cc1 [Compound B2, 1-{4-[5-(1,4-Diaza-bicyclo[3.2.2]nonane-4-carbonyl)-furan-2-yl]-phenyl}-3-(2-acetylaminophenyl)-urea]",1.6 nM
3,"CCNC(=O)Nc1ccc(-c2ccc(C(=O)N3CCN4CCC3CC4)o2)cc1 [Compound C3, 1-{4-[5-(1,4-Diaza-bicyclo[3.2.2]nonane-4-carbonyl)-furan-2-yl]-phenyl}-3-ethyl-urea]",0.56 nM

# Tested on: not given
# Experiment: not given
# Conditions: not given
row,Compound,melting point
1,Nc1ccc(C(=O)Nc2ccc(-c3ccc(C(=O)N4CCN5CCC4CC5)o3)cc2)cc1,151 °C
2,Nc1cccc(C(=O)Nc2ccc(-c3ccc(C(=O)N4CCN5CCC4CC5)o3)cc2)c1,249 to 252 °C
3,O=C(Nc1ccc(-c2ccc(C(=O)N3CCN4CCC3CC4)o2)cc1)Nc1ccccc1F,241 °C (dec.)
4,O=C(Nc1ccc(-c2ccc(C(=O)N3CCN4CCC3CC4)o2)cc1)Nc1cccc(F)c1,230 °C
5,O=C(Nc1ccc(-c2ccc(C(=O)N3CCN4CCC3CC4)o2)cc1)Nc1ccccc1C(F)(F)F,253 °C (dec.)
6,O=C(Nc1ccc(-c2ccc(C(=O)N3CCN4CCC3CC4)o2)cc1)Nc1cccc(C(F)(F)F)c1,171 °C
7,O=C(c1ccc(-c2ccc(NC(=S)Nc3ccccc3)cc2)o1)N1CCN2CCC1CC2,171.4 to 174.7 °C
8,O=C(Nc1ccc(-c2ccc(C(=O)N3CCN4CCC3CC4)o2)cc1)Nc1ccccc1Cl,200 to 211 °C (dec.)
9,O=C(Nc1ccc(-c2ccc(C(=O)N3CCN4CCC3CC4)o2)cc1)c1ccccc1,254 °C
10,CCNC(=O)Nc1ccccc1NC(=O)Nc1ccc(-c2ccc(C(=O)N3CCN4CCC3CC4)o2)cc1 (as salt: fumaric acid salt),162.5 to 165.5 °C
11,CCNC(=O)Nc1cccc(-c2ccc(C(=O)N3CCN4CCC3CC4)o2)c1 (as salt: fumaric acid salt),158 to 161 °C
12,O=C(Nc1ccc(-c2ccc(C(=O)N3CCN4CCC3CC4)o2)cc1)c1ccncc1 (as salt: fumaric acid salt),250 to 253.5 °C
13,O=C(Nc1ccc(-c2ccc(C(=O)N3CCN4CCC3CC4)o2)cc1)Nc1ccccc1[N+](=O)[O-] (as salt: fumaric acid salt),198 to 202 °C
14,O=C(Nc1cccc(-c2ccc(C(=O)N3CCN4CCC3CC4)o2)c1)c1ccccc1 (as salt: fumaric acid salt),201 to 204 °C
15,O=C(c1ccc(-c2ccc(-n3cccc3)cc2)o1)N1CCN2CCC1CC2 (as salt: fumaric acid salt),222 °C
16,O=C(c1ccc(-c2ccc(Nc3ncccc3[N+](=O)[O-])cc2)o1)N1CCN2CCC1CC2 (as salt: fumaric acid salt),223 °C
17,"CC(=O)Nc1ccccc1NC(=O)Nc1ccc(-c2ccc(C(=O)N3CCN4CCC3CC4)o2)cc1 (as salt: fumaric acid salt) [Compound B2, 1-{4-[5-(1,4-Diaza-bicyclo[3.2.2]nonane-4-carbonyl)-furan-2-yl]-phenyl}-3-(2-acetylaminophenyl)-urea]",159 to 169 °C
18,"CCNC(=O)Nc1ccc(-c2ccc(C(=O)N3CCN4CCC3CC4)o2)cc1 (as salt: fumaric acid salt) [Compound C3, 1-{4-[5-(1,4-Diaza-bicyclo[3.2.2]nonane-4-carbonyl)-furan-2-yl]-phenyl}-3-ethyl-urea]",167 to 171 °C
19,O=C(Nc1ccc(-c2ccc(C(=O)N3CCN4CCC3CC4)o2)cc1)c1ccccc1[N+](=O)[O-] (as salt: hydrochloric acid salt),283 °C
20,O=C(Nc1ccc(-c2ccc(C(=O)N3CCN4CCC3CC4)o2)cc1)c1ccc([N+](=O)[O-])cc1 (as salt: hydrochloric acid salt),195 to 210 °C
21,O=C(Nc1ccc(-c2ccc(C(=O)N3CCN4CCC3CC4)o2)cc1)c1cccc([N+](=O)[O-])c1 (as salt: hydrochloric acid salt),> 300 °C
22,"Nc1ccccc1NC(=O)Nc1ccc(-c2ccc(C(=O)N3CCN4CCC3CC4)o2)cc1 [Compound A1, 1-{4-[5-(1,4-Diaza-bicyclo[3.2.2]nonane-4-carbonyl)-furan-2-yl]-phenyl}-3-(2-aminophenyl)-urea]",174 °C
